Measurements taken from patent US10646460B2, “Pharmaceutical composition for inhibiting growth of cancer stem cells, containing aldehyde inhibitor and biguanide-based compound” (NATIONAL CANCER CENTER, priority 2015, dated 2020).

What was measured:
U87 neurosphere cells = test: Analysis of formation of neurospheres; assay type: cell-based; settings: 1 μM gossypol, 10 μM phenformin or mixture, 3 weeks, FIG. 3
Method: U87 cells were cultured in DMEM/F-12 medium containing 2 wt % 1×B27, 0.02 wt % bFGF (20 ng/ml), 0.02 wt % EGF (20 ng/ml) and 50 U/ml penicillin-[…] (100×, Gibco, Invitrogen Korea, Seoul, South Korea) to form tumor spheres. Next, the cells were seeded onto a 96-well plate at a density of 10 cells/well and treated with each of 1 μM gossypol, 10 μM phenformin and a mixture of 1 μM gossypol and 10 μM phenformin. Then, the cells were cultured at 37° C. for 3 weeks.
In FIG. 4, the percent change in the radius of the neurospheres is expressed as the percentage of the average radius of the neurospheres after each treatment relative to the average radius of the neurospheres seeded onto the 96-well plate, and in FIG. 5, the degree of neurosphere formation is expressed as the percentage of the number of the neurosphere cells after each treatment relative to the number of the neurosphere cells seeded onto the 96-well plate.

U87-luc cells = test: Orthotopic xenograft model (U87-luc cells transplanted into the cerebrum), bioluminescence and survival; assay type: in vivo, male athymic nude mice; settings: 5 weeks after transplantation; oral gossypol 40 mg/kg and/or phenformin 100 mg/kg each day, FIG. 7
Method: Gossypol and phenformin to be used in an animal study were dissolved in DMSO and PBS, respectively. A composition for co-administration of gossypol and phenformin was dissolved in PBS containing 10 wt % DMSO and 10 wt % cremophor.
For preparation of orthotopic xenograft models, 4-8-week-old male athymic nude mice (Central Lab., Korea) were used. For stabilization, the mice were maintained in a sterilized environment for at least one week before use in the experiment while they were fed with a sufficient diet. […] First, the mice were anesthetized by intraperitoneal injection of 30 mg/kg of Zoletil and 10 mg/kg of Xylazine, and 2×10^5 U87-luc cells were transplanted into the right frontal lobe of the cerebrum to a depth of 4.5 mm by use of a Hamilton syringe. The U87-luci cells were injected into five mice of the same group at the same time at a rate of 0.5 l/minute by use of a micro-infusion syringe pump. Thereafter, the mice were administered orally with gossypol (40 mg/kg) and/or phenformin (100 mg/kg) each day.
An increase or decrease in the body weight was checked each day, and when a mouse whose body weight decreased by 15 wt % compared to the body weight before the start of the experiment, the mouse was euthanized according to the approved protocol. […]

U87 cells (GBM cells) = test: MTT assay of cell viability following treatment with gossypol; assay type: cell-based; settings: 0.5, 1, 5, 10 and 50 μM gossypol, 72 hours, FIG. 1
Method: U87 cells (GBM cells) were treated with 0.5, 1, 5, 10 and 50 μM of gossypol for 72 hours (FIG. 1).

Compound | size of neurosphere cells / presence in cell photographs (U87 neurosphere cells) | degree of occurrence of brain cancer (bioluminescence signal) (U87-luc cells) | growth of the cells (MTT assay) (U87 cells (GBM cells))
NC(N)=N/C(N)=N/CCc1ccccc1 [phenformin] | the size of the neurosphere cells decreased | fluorescence was observed | 
Cc1cc2c(C(C)C)c(O)c(O)c(C=O)c2c(O)c1-c1c(C)cc2c(C(C)C)c(O)c(O)c(C=O)c2c1O [gossypol] | the size of the neurosphere cells decreased | fluorescence was observed | growth of the cells was inhibited
